Laboratory results published in ChEMBL document CHEMBL4184184, “Lead identification and optimization of bacterial glutamate racemase inhibitors” (Bioorg Med Chem, 2018).
Values after ≈ are worked out from the molar mass of the structure shown. Active and inactive are the calls of the source. The calls are words filed in the database; no cut-off is given here.

What was measured:
[1] = system: Mycobacterium tuberculosis; assay: Antibacterial activity against Mycobacterium tuberculosis H37Rv after 1 week in presence of efflux pump inhibitor verapamil by MABA; type: functional; details: 168 h
[2] = Cytotoxicity against mouse RAW264.7 cells assessed as growth inhibition at 25 uM after 48 hrs by MTT assay relative to control; type: cell-based; details: read-out: GI
[3] = system: Mycobacterium tuberculosis; assay: Antibacterial activity against Mycobacterium tuberculosis H37Rv after 1 week in presence of efflux pump inhibitor piperine by MABA; type: functional; details: 168 h
[4] = system: Mycobacterium tuberculosis; assay: Antibacterial activity against Mycobacterium tuberculosis H37Rv after 1 week by MABA; type: functional; details: 168 h
[5] = system: Mycobacterium tuberculosis; assay: Ratio of MBC to MIC for Mycobacterium tuberculosis H37Rv; type: functional
[6] = biological target: T1, Glutamate racemase (Mycobacterium tuberculosis (strain ATCC 25618 / H37Rv)) (UniProt P9WPW9); assay: Non-competitive inhibition of Mycobacterium tuberculosis glutamate racemase assessed as change in melting temperature by SYPRO orange dye based fluorescence assay
T1 sequence (whole entry): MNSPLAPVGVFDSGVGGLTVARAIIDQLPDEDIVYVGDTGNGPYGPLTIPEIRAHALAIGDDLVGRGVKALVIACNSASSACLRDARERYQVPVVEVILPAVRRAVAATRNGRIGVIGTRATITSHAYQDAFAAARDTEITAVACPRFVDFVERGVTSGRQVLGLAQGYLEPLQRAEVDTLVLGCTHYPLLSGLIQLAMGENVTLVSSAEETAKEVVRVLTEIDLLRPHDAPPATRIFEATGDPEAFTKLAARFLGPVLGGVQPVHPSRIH

[7] = system: Mycobacterium tuberculosis; assay: Bacteriostatic activity against Mycobacterium tuberculosis H37Rv at 5 to 20 uM incubated up to 21 days; type: functional, organism-based
[8] = system: Mycobacterium tuberculosis; assay: Antibacterial activity against non replicating Mycobacterium tuberculosis H37Rv assessed as log reduction in bacterial count at 10 ug/ml incubated for 7 days followed by compound dilution measured after 4 weeks; type: functional
[9] = biological target: T1, Glutamate racemase (Mycobacterium tuberculosis (strain ATCC 25618 / H37Rv)); assay: Non-competitive inhibition of Mycobacterium tuberculosis glutamate racemase assessed as change in melting temperature in presence of substrate D-glutamate by SYPRO orange dye based fluorescence assay
Mycobacterium marinum [10] = assay: Antibacterial activity against Mycobacterium marinum ATCC BAA-535 infected in zebra fish assessed as log reduction in bacterial load at 10 mg/kg, po for 7 days; type: functional
[11] = system: Mycobacterium tuberculosis; assay: Antibiofilm activity against Mycobacterium tuberculosis H37Rv at 10 ug/ml after 1 week; type: functional
[12] = system: Mycobacterium tuberculosis; assay: Bacteriostatic activity against Mycobacterium tuberculosis H37Rv assessed as reduction in bacterial count at 25 uM incubated up to 21 days relative to control; type: functional
[13] = system: Mycobacterium tuberculosis; assay: Bactericidal activity against Mycobacterium tuberculosis H37Rv incubated up to 21 days; type: functional, organism-based
[14] = biological target: T1, Glutamate racemase (Mycobacterium tuberculosis (strain ATCC 25618 / H37Rv)); assay: Binding affinity to Mycobacterium tuberculosis glutamate racemase assessed as change in melting temperature by SYPRO orange dye based fluorescence assay
Mycobacterium marinum [15] = assay: Antibacterial activity against Mycobacterium marinum ATCC BAA-535 infected in zebra fish assessed as log reduction in bacterial load at 5 mg/kg, po for 7 days; type: functional

Structure (SMILES) | MIC [1] | inhibition at 48 h, 25 µM [2] | MIC [3] | MIC [4] | also measured
FC(F)(F)c1ccc2sc(-c3cccc(NC(=S)Nc4ccccc4)c3)nc2c1 | 1.84 µM | 28.1% | 14.6 µM | 14.7 µM (≈ 6.3 µg/mL) | –
Cc1ccc(NC(=S)Nc2cccc(-c3nc4ccccc4s3)c2)cc1 | 8.29 µM | 17.5% | 16.6 µM | 16.6 µM (≈ 6.24 µg/mL) | Ratio [5]: >4; ΔTm [6]: 3.9 °C; Activity [7]: Active; log(activity) [8]: 2.1; ΔTm [9]: 4.7 °C; log(activity) (Mycobacterium marinum [10]): 3.5; log(activity) [11]: 2
Fc1ccc(NC(=S)Nc2cccc(-c3nc4ccccc4s3)c2)cc1 | 2.15 µM | 98.2% | 2.15 µM | 2.15 µM (≈ 0.816 µg/mL) | –
O=[N+]([O-])c1ccc(NC(=S)Nc2cccc(-c3nc4cc(C(F)(F)F)ccc4s3)c2)cc1 | 3.34 µM | 18.4% | 52.7 µM | 52.7 µM (≈ 25 µg/mL) | –
O=C(Nc1ccc([N+](=O)[O-])cc1)Nc1cccc(-c2nc3ccccc3s2)c1 | 2.04 µM | 42.1% | 8.09 µM | 8.09 µM (≈ 3.16 µg/mL) | Ratio [5]: <4; fold change (FC) [12]: >3; Activity [13]: Dose-dependent effect; log(activity) [8]: 2.1; log(activity) [11]: 0.7
FC(F)(F)c1ccc2sc(-c3cccc(NC(=S)Nc4ccc(Cl)cc4)c3)nc2c1 | – | 97.3% | – | 53.9 µM (≈ 25 µg/mL) | –
COc1ccc(NC(=O)Nc2cccc(-c3nc4cc(C(F)(F)F)ccc4s3)c2)cc1 | – | 59.1% | – | 56.4 µM (≈ 25 µg/mL) | –
O=C(Nc1ccc(F)cc1)Nc1cccc(-c2nc3cc(C(F)(F)F)ccc3s2)c1 | – | 97.7% | – | 57.9 µM (≈ 25 µg/mL) | –
Cc1ccc(NC(=S)Nc2cccc(-c3nc4cc(C(F)(F)F)ccc4s3)c2)cc1 | – | 97.1% | – | 28.3 µM (≈ 12.5 µg/mL) | –
O=C(Nc1ccc(F)cc1)Nc1cccc(-c2nc3ccccc3s2)c1 | – | – | – | – | ΔTm [14]: 3.3 °C
O=C(Nc1ccccc1)Nc1cccc(-c2nc3ccccc3s2)c1 | – | 97.2% | – | 72.9 µM (≈ 25.2 µg/mL) | –
COc1ccc(NC(=O)Nc2cccc(-c3nc4ccccc4s3)c2)cc1 | – | 56.1% | – | 33.3 µM (≈ 12.5 µg/mL) | –
Cc1ccc(NC(=O)Nc2cccc(-c3nc4ccccc4s3)c2)cc1 | 2.17 µM | 31.2% | 69.7 µM | 69.7 µM (≈ 25 µg/mL) | –
CO[C@H]1/C=C/O[C@@]2(C)Oc3c(C)c(O)c4c(O)c(c(/C=N/N5CCN(C)CC5)c(O)c4c3C2=O)NC(=O)/C(C)=C\C=C\[C@H](C)[C@H](O)[C@@H](C)[C@@H](O)[C@@H](C)[C@H](OC(C)=O)[C@@H]1C [RIFAMPIN] | 0.15 µM | – | 0.15 µM | 0.15 µM (≈ 0.123 µg/mL) | log(activity) [8]: 0.5; log(activity) [11]: 1.2
FC(F)(F)c1ccc2sc(-c3cccc(NC(=S)NCc4ccccc4)c3)nc2c1 | – | 96.1% | – | 14.7 µM (≈ 6.52 µg/mL) | Ratio [5]: >4; Activity [7]: Active; log(activity) [8]: 2.1; log(activity) [11]: 1.8
O=C(Nc1ccc(Cl)cc1)Nc1cccc(-c2nc3cc(C(F)(F)F)ccc3s2)c1 | – | 45.7% | – | 55.9 µM (≈ 25 µg/mL) | –
O=[N+]([O-])c1ccc(NC(=S)Nc2cccc(-c3nc4ccccc4s3)c2)cc1 | – | 98.2% | – | 61.6 µM (≈ 25 µg/mL) | –
NNC(=O)c1ccncc1 [ISONIAZID] | 0.72 µM | – | 0.72 µM | 0.72 µM (≈ 0.0987 µg/mL) | log(activity) (Mycobacterium marinum [15]): 2.6; log(activity) [8]: 1.1; log(activity) [11]: 1
O=C(Nc1ccc([N+](=O)[O-])cc1)Nc1cccc(-c2nc3cc(C(F)(F)F)ccc3s2)c1 | – | 99.2% | – | 54.7 µM (≈ 25.1 µg/mL) | –
O=C(Nc1ccccc1)Nc1cccc(-c2nc3cc(C(F)(F)F)ccc3s2)c1 | – | 40% | – | 3.76 µM (≈ 1.55 µg/mL) | –
N[C@H](CCC(=O)O)C(=O)O | – | – | – | – | ΔTm [14]: 2.4 °C
COc1c(N2C[C@@H]3CCCN[C@@H]3C2)c(F)cc2c(=O)c(C(=O)O)cn(C3CC3)c12 [MOXIFLOXACIN] | – | – | – | – | Activity [8]: Active; log(activity) (Mycobacterium marinum [10]): 2.5; log(activity) [11]: 1.8
Fc1ccc(NC(=S)Nc2cccc(-c3nc4cc(C(F)(F)F)ccc4s3)c2)cc1 | 7.01 µM | 76.3% | 27.9 µM | 27.9 µM (≈ 12.5 µg/mL) | Ratio [5]: >4; Activity [7]: Active; log(activity) [8]: 2.1
CC[C@@H](CO)NCCN[C@@H](CC)CO [ETHAMBUTOL] | 3.82 µM | – | 3.82 µM | 7.64 µM (≈ 1.56 µg/mL) | –
S=C(NCc1ccccc1)Nc1cccc(-c2nc3ccccc3s2)c1 | 2.12 µM | 32.2% | 66.6 µM | 66.6 µM (≈ 25 µg/mL) | –
S=C(Nc1ccccc1)Nc1cccc(-c2nc3ccccc3s2)c1 | – | 2.35% | – | 69.2 µM (≈ 25 µg/mL) | –
Cc1ccc(NC(=O)Nc2cccc(-c3nc4cc(C(F)(F)F)ccc4s3)c2)cc1 | – | 22.5% | – | 58.6 µM (≈ 25 µg/mL) | –
S=C(Nc1ccc(Cl)cc1)Nc1cccc(-c2nc3ccccc3s2)c1 | – | 58.4% | – | 2.09 µM (≈ 0.828 µg/mL) | –
O=C(Nc1ccc(Cl)cc1)Nc1cccc(-c2nc3ccccc3s2)c1 | – | 30.1% | – | 65.9 µM (≈ 25 µg/mL) | –
